Assay results published in publication PMC5442318, “Hundreds of dual-stage antimalarial molecules discovered by a functional gametocyte screen” (Nature Communications, 2017).
Where two headings read alike, the source gives them in different places.

Assays:
[1] = system: HepG2 cells; experiment: HepG2 cytotoxicity assay; assay type: cell-based
Summary of the method: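 Luminescent read-out (CellTiter-Glo) taken 10 min after reagent addition at RT; plates and reagent pre-equilibrated 30 min at RT.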

[2] = system: P. falciparum stages IV–V gametocytes; experiment: Gametocytocidal ATP-depletion assay (gametocyte ATP bioluminescence); assay type: cell-based, Plasmodium falciparum; conditions: Plasmodium falciparum, mean
Summary of the method: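 Read-out is luciferase luminescence of parasite ATP (BacTiter-Glo), standing in for viability. Double-purified mature stage IV–V gametocytes, 12,500 per well, were exposed 48 h at 37 °C in low-O2 gas; screening concentration 2 μM.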

[3] = system: P. falciparum stage V female gametocytes; experiment: P. falciparum female gametocyte activation assay (Pf FGAA), 24 h or 48 h preincubation, Pfs25 expression readout; assay type: cell-based, Plasmodium falciparum NF54; conditions: for Biological profile: Pf FGAA with 48 h, 24 h or post-activation addition, active = IC50 below 2 μM; for IC50: Plasmodium falciparum; for Pf FGAA classification: SLOW / FAST / GAMETE from activity at 48h, 24h, 0h incubation
Summary of the method: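 Female activation, triggered by xanthurenic acid and cooling, was scored by imaging Cy3-labelled anti-Pfs25 female gametes after 24 h at 26 °C. Beforehand, purified NF54 stage V gametocytes had been incubated with compound for either 24 h or 48 h (37 °C, 3% O2). Values are pIC50 from full-curve regression.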

[4] = HepG2 TOX50 versus Pf FGAA IC50
[5] = 24h incubation time, read-out: Pf FGAA IC50 (µM) 24h
[6] = stage V gametocytes, 48 h exposure, read-out: PfFGAA IC50

SMILES | IC50 [3, 5] [µM] | IC50 [3, 6] [µM] | IC50 ([3]; P. falciparum female gametocytes, mean, read-out: Gametocytes mean Pf FGAA IC50) [µM] | IC50 ([3]; 48h incubation time, read-out: Pf FGAA IC50 (µM) 48h) [µM] | IC50 ([3]; mean, P. falciparum female gametocyte activation assay, read-out: Gametocytes mean Pf FGAA IC50) [µM] | Tox50 ([1]; HepG2, 48 h) [µM] | Selectivity ratio [1, 4] | HepG2 cells TOX50 ([1]; HepG2 cells) [µM] | HepG2 cells mean TOX50 ([1]; HepG2 cells; mean) [µM] | inhibition at 2 µM [2] [%] | Biological profile [3] | Pf FGAA classification [3] | Selectivity ratio ([1]; HepG2 TOX50 / Pf FGAA IC50) | HepG2 cells mean TOX50 ([1]; mean; HepG2 cells) [µM]
FC(F)(F)c1cnc(Sc2nnc(-c3ccncc3)o2)c(Cl)c1 [TCMDC-123767] | > 20 | 0.16 | – | – | – | 100 | >625 | >100 | >100 | -5.49 | Slow-acting | SLOW | – | –
CC1Cc2ccccc2N1S(=O)(=O)c1cccc(C(=O)Nc2nc(-c3ccccn3)cs2)c1 (stereo not drawn) [TCMDC-124559] | – | 0.5 | 0.34 | – | – | >100 | 146.27 | – | 50.12 | 8.95 | Fast-acting | FAST | – | –
CC(C)(CNC(=O)[C@H]1CCCCN1)c1nc(-c2ccc(Cl)c(O)c2)c(-c2ccncc2)[nH]1 [TCMDC-141070] | 1.68 | 0.53 | – | – | – | 28.96 | – | – | – | -0.73 | Gamete-targeting | GAMETE | 54.30 | 28.96
Cc1ccc(Cn2nc(Cl)c(N3CCNCC3)cc2=O)cc1NC(=O)Nc1ccc(-c2ccccc2)cc1 [TCMDC-141698] | 0.44 | 0.44 | – | 0.44 | 0.44 | 4.79 | – | – | – | -7.4 | Gamete-targeting | GAMETE | 10.79 | 4.79

The next lines start with results.

IC50 [3, 5] [µM] | IC50 [3, 6] [µM] | IC50 ([3]; P. falciparum female gametocytes, mean, read-out: Gametocytes mean Pf FGAA IC50) [µM] | IC50 ([3]; 48h incubation time, read-out: Pf FGAA IC50 (µM) 48h) [µM] | IC50 ([3]; mean, P. falciparum female gametocyte activation assay, read-out: Gametocytes mean Pf FGAA IC50) [µM] | SMILES | Tox50 ([1]; HepG2, 48 h) [µM] | Selectivity ratio [1, 4] | HepG2 cells TOX50 ([1]; HepG2 cells) [µM] | HepG2 cells mean TOX50 ([1]; HepG2 cells; mean) [µM] | inhibition at 2 µM [2] [%] | Biological profile [3] | Pf FGAA classification [3] | Selectivity ratio ([1]; HepG2 TOX50 / Pf FGAA IC50) | HepG2 cells mean TOX50 ([1]; mean; HepG2 cells) [µM]
0.96 | 0.36 | – | – | – | COc1cc(OC)cc(C(=O)Nc2nc(-c3ccccn3)cs2)c1 [TCMDC-125345] | 39.82 | 111.27 | – | 39.82 | 39.5 | Fast-acting | FAST | – | –
0.41 | 0.21 | – | – | – | NCC1(c2nc(-c3ccc(Cl)c(O)c3)c(-c3ccncc3)[nH]2)CCCCC1 [TCMDC-141154] | 11.9 | – | – | – | -10.5 | Gamete-targeting | GAMETE | 56.01 | 11.90
